Laboratory results from patent US20230050202A1, “ENGINEERED FIBROBLASTS AS CELL THERAPY TO TREAT CANCER VIA TUMOR STROMA STABILIZATION” (The Johns Hopkins University, priority 2020, published 2023).

Legend:
[1] = tested on: αSMA expression in NIH-3T3 fibroblasts; assay: αSMA immunofluorescence in fibroblasts, 67NR spheroid coculture; format: cell-based, mouse
Protocol: (§1) Spheroid encapsulation with fibroblasts: for coculture, 40 μL collagen was used to re-suspend 2×10^5 NIH-3T3 cells after centrifugation. The fibroblasts-containing liquid collagen was then added to the glass bottom well where a spheroid was placed in its center. The mixture was allowed to gel at room temperature for 2 hours. 2 mL DMEM was then added into the well. The embedded spheroid was incubated for at least 1 day or longer, as indicated in the text, before being used.
(§2) ECM crosslinking. ECM-encapsulated 67NR spheroids were prepared as previously described. After 1-hour incubation, genipin (Sigma-Aldrich, G4796) was mixed with DMEM to reach final concertation of 0.5 mM and 1 mM. The solutions were then added to the samples and incubated for 24 hours. The DMSO-added DMEM were used as a control for the experiment. The samples were then washed with PBS for further usage.
(§3) Immunofluorescence. Samples were fixed in 4% paraformaldehyde for 30 minutes, permeabilized with 0.1% Triton X100 (Sigma-Aldrich, X100) in PBS for 30 minutes. PBS containing 2% bovine serum albumin (Sigma-Aldrich, A7906) and 0.1% Tween-20 (Promega) was then added to sample for 30 minutes for blocking. All antibody was diluted in PBS with 1% bovine serum albumin. The fixed cells were incubated with the primary antibody for overnight at 4° C., followed by washing using PBS for 3 times, and then incubated with the secondary antibody for 2 hours. After washing, the samples were immersed in PBS and stored in 4° C. for further usage. […]
(§4) Fibril coherence analysis was performed using Quantitative orientation measurement in orientationJ21. The immunostaining was quantified using Fiji/ImageJ software. […]
(§5) where II and AI denotes the fluorescence intensity, and the area of the cell, respectively. I2 and A2 denotes the fluorescence intensity, and the area of the larger region encompassing the cell and the surrounding background, respectively. […] The corrected fluorescence intensity was then recorded for each cell.

[2] = tested on: FSP1 expression in NIH-3T3 fibroblasts; assay: FSP1 immunofluorescence in fibroblasts, 67NR spheroid coculture; format: cell-based, mouse
Protocol: as §1, §2, §3, §4, §5

67NR-embedded ECM [3] = assay: ECM fibril alignment (coherence analysis) in 67NR spheroid-embedded ECM; format: cell-based, mouse; details: 0.5 mM genipin, 24 hours, vs control
Protocol: Spheroid encapsulation without fibroblast: after the spheroid adhered to the glass bottom well via collagen, the liquid collagen kept at the 4° C. was poured to the well to embed the spheroid. 40 μL liquid collagen was slowly pipetted into the well and allowed to gel for 2 hours at room temperature. 2 mL DMEM was then added into the well. The embedded spheroid was incubated for at least 1 day or longer before being used.
as §2, §4
To determine whether 67NR spheroid alone is sufficient to align the fibrils, time-lapse imaging was performed by embedding EpH4-Ev and 67NR spheroids in ECM without fibroblasts. […] To quantify the degree of fibril alignment, coherence analysis 21 was performed. […] Fibril orientations within and outside the 300-μm perimeter from the spheroid were evaluated separately.

[4] = Rheological measurement (LAOS) of crosslinked collagen gel; format: physicochemical
Protocol: ECM crosslinking. ECM-encapsulated 67NR spheroids were prepared as previously described. After 1-hour incubation, genipin (Sigma-Aldrich, G4796) was mixed with DMEM to reach final concertation of 0.5 mM and 1 mM. The solutions were then added to the samples and incubated for 24 hours. The DMSO-added DMEM were used as a control for the experiment. The samples were then washed with PBS for further usage. Elastic modulus measurement. The Large […] Oscillatory Shear (LAOS) was used to test the shear modulus of the crosslinked and uncrosslinked collagen gel. The collagen gel was prepared in disks and subjected to sinusoidal rotational deformation. The amplitude of the applied strain (y) to the material was increased at a fixed rotational frequency (w) of 1 rad/s. The analysis utilized a viscoelastic stress response model wherein the shear stress is computed as a function of strain ranging from 0.01%-15%. The Fourier Transform method was utilized to quantify the nonlinear stress response of ECM samples under increasingly large angular shear strain. LAOS was performed using an Anton Paar Modular Compact Rheometer (MCR 302) with a parallel plate (diameter 8 mm) at 37° C. The measurement values of the shear modulus were then used obtain the elastic modulus by the formula: E=2G(1+v) where E is elastic modulus, G is shear modulus, and v is the Poisson ratio. The Poisson ratio was assumed to be 0.5.

67NR spheroids = assay: Cytotoxicity in genipin-treated 67NR-embedded ECM; format: cell-based, mouse; details: 0.5 mM genipin, 24 hours
Protocol: as §2
The corollary to the observation that ECM fibril alignment promotes CAF induction in the coculture is that suppressing such alignment will attenuate it. To confirm this, genipin, a biocompatible crosslinking reagent, was used to suppress the fibril reorganization. The optimal genipin concentration was identified to be 0.5 mM. […] Yet the fibril alignment was suppressed by 28% (FIGS. 5A-5B). […] Though ECM crosslinking might lead to CAF induction because of ECM stiffening, it was not the case in these experiments. […] Having had established the optimal genipin concentration to suppress fibril alignment, it was used to evaluate whether CAF induction in cocultured fibroblasts would be attenuated. […] To exclude the possibility that genipin directly downregulates CAF markers in fibroblasts, their expression was evaluated in genipin-treated samples containing fibroblasts only.

67NR-embedded ECM [5] = assay: Line FRAP diffusion enhancement time in spheroid-embedded ECM; format: cell-based, mouse; details: 0.5 mM genipin-treated 67NR-embedded ECM, 2,000 kDa FITC-dextran
Protocol: ECM crosslinking. ECM-encapsulated 67NR spheroids were prepared as previously described. After 1-hour incubation, genipin (Sigma-Aldrich, G4796) was mixed with DMEM to reach final concertation of 0.5 mM and 1 mM. The solutions were then added to the samples and incubated for 24 hours. The DMSO-added DMEM were used as a control for the experiment. The samples were then washed with PBS for further usage. Fluorescence recovery after photobleaching. 10 mg/mL of 2,000 kDa fluorescein isothiocyanate (FITC)-Dextran (SigmaAldrich, FD2000S) was added to the collagen gel and incubated for 30 minutes at 37° C. […] The characteristic fluorescence recovery times τD, when 64% of the fluorescence intensity is recovered, was calculated based on the fitted curve. […] Line fluorescence recovery was performed after photobleaching (FRAP) to measure the diffusivity of the spheroid-embedded ECM. […] To assess whether there is enhancement in diffusion rates in the radial direction from the spheroid, the metric “diffusion enhancement time (τDE)” was introduced, defined as the difference in the characteristic fluorescence recovery times τD, when 64% of the fluorescence intensity is recovered, between the two stripes: […]) where rD(radial) represents the rD measured in the radial direction, and rD(orthogonal) in the corresponding orthogonal direction. […]

[6] = tested on: αSMA expression in human lung fibroblasts (MRCS); assay: TGFβ1-mediated CAF induction (αSMA expression) in human lung fibroblasts; format: cell-based; details: control fibroblasts, TGFβ1 10 ng/mL, vs non-treated group, p<0.001
From the text: Prototype STAR fibroblasts were generated by introducing the dominant negative form of RhoA (RhoA^T19N) into to human lung fibroblasts (MRCS) to reduce RhoA signaling, a key mediator for CAF phenotypes.

[7] = fibroblast-only samples after genipin treatment
[8] = genipin-treated cocultures, fibroblasts outside 300-μm perimeter, treatment vs control
[9] = genipin-treated cocultures, fibroblasts within the 300-μm perimeter from the spheroid

| Compound | αSMA expression [1, 7] | αSMA expression decreased [1, 8] | αSMA expression reduced [1, 9] | FSP1 expression [2, 7] | FSP1 expression decreased [2, 8] | FSP1 expression reduced [2, 9] | fibril alignment suppressed (67NR-embedded ECM [3]) | ECM stiffening ([4]; 0.5 mM genipin, 24 hours) | shear moduli vs uncrosslinked control ([4]; 0.5 mM genipin-treated ECM) | elastic modulus of the ECM (mean±s.d.) ([4]; ECM treated with 0.5 mM genipin) | ECM became stiffer ([4]; ECM treated with 1 mM genipin vs un-crosslinked ECM) | cytotoxicity (67NR spheroids) | rDE value (diffusion enhancement time) (67NR-embedded ECM [5]) | αSMA expression increase [6] |
| --- | --- | --- | --- | --- | --- | --- | --- | --- | --- | --- | --- | --- | --- | --- |
| COC(=O)C1=CO[C@@H](O)[C@@H]2C(CO)=CC[C@H]12 [genipin] | remained unchanged | 39% | 33% | remained unchanged | 36% | 23% | 28% | negligible ECM stiffening | comparable | 755±163 Pa | 29% | no observable cytotoxicity | decreased to a negligible level | – |
| TGFβ1: cytokine used at 10 ng/mL to induce CAF phenotype in fibroblasts | – | – | – | – | – | – | – | – | – | – | – | – | – | 50% |
